The values that follow come from PubChem BioAssay (NCI).

Assay in all cases: DTP human tumour cell line panel, 48 h
Test [1] concerns HOP-92 NSCLC.
Test [2] concerns SW-620 colon.
In test [3] the test system is IGROV1 ovarian.
Test [4] concerns OVCAR-8 ovarian.
Test [5] deals with HCT-116 colon.
Test [6] deals with SK-MEL-28 melanoma.
Test [7] concerns HOP-62 NSCLC.
The subject of test [8] is NCI-H23 lung.
Test [9] concerns NCI-H522 lung.
Test [10] has as its system EKVX NSCLC.
The subject of test [11] is OVCAR-3 ovarian.
Test [12] deals with RXF 393 renal.
Test [13] relates to MALME-3M melanoma.
The test system of test [14] is CCRF-CEM leukemia.

Structures are written as SMILES.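 1) Cells in 96-well plates. 2) Compound, 48 h, 5 concentrations. 3) Linear interpolation between surrounding doses. 4) Unreached endpoint = highest concentration. At the GI50, growth is halved. TGI: total growth inhibition.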

One may read the TGI as the concentration at which net growth stops. Lower therefore signals greater sensitivity of the cells. For `COc1ccc(-c2cc(-c3ccc(Cl)cc3)n(C3OC(CO)C(O)C(O)C3O)c(=S)c2C#N)cc1` (centres undefined), the TGI in test [1], in test [2], in [3], in [4], in [5] and in test [6] was above 100 µM in each case. Further, in [7], the TGI is above 100 µM.
Turning to `[N-]=[N+]=Nc1ccc(NCCCCCC(=O)ON2C(=O)CCC2=O)c([N+](=O)[O-])c1`, the TGI was above 100 µM in test [8]; above 100 µM in [9]; above 100 µM in test [10]; above 100 µM in test [11]; above 100 µM in test [12]; 87.6 µM in [1]. In addition, the TGI in [2], in test [3], in test [4], in test [5], in test [13] and in test [6] was above 100 µM throughout. This compound displayed a TGI in test [7] above 100 µM.
Regarding `O=C(O)CN=C(C(=NCC(=O)O)c1ccccc1)c1ccccc1`, the TGI in test [8], in test [9], in test [10], in [11], in [12] and in test [2] was above 100 µM each time. The TGI in test [4], in test [5], in test [13], in [6] and in [7] was above 100 µM throughout.
Take `COC1(C(C)(C)C)C=C(C(C)(C)C)P(=O)(O)O1` (centres undefined): the TGI in test [8], in test [9], in [10], in test [11], in [1] and in test [2] was above 100 µM each time. For the same compound, the TGI in [3], in test [4], in test [5], in test [13], in test [6] and in [7] was above 100 µM throughout.
Turning to `O=C(O)c1nc2cc(C(F)(F)F)ccc2nc1Nc1ccc(Cl)c(Cl)c1`, the TGI in [8] is 31.7 µM; in [9] it was 31.4 µM; in test [10] it was 42.4 µM; in test [11] it was 26.4 µM; in [12], 37.5 µM; in test [1], 23.1 µM. Also, the TGI in test [2] stood at 22.7 µM; in test [3], 39.3 µM; in test [4] it was 26 µM; in test [5] it was 21.1 µM; in [13] it was 38.7 µM; in [7] it was 27.6 µM.
As for `NCCC(=O)N[C@H](Cc1cc(O)c(O)c(SCC(NC(=O)CC[C@H](N)C(=O)O)C(=O)NCC(=O)O)c1)C(=O)O` (some centres undefined), the TGI in test [8], in [9], in test [10], in test [12], in test [1] and in [2] was above 50 µM each time. The TGI in [3], in test [5], in test [13], in test [6] and in [7] was above 50 µM throughout.
With `CN1CCC(CNC(=O)CCCCCCCCC(=O)NCC2(c3ccccc3)CCN(C)CC2)(c2ccccc2)CC1`, the TGI is above 100 µM in test [9]; above 100 µM in [14]; 38.8 µM in test [10]; above 100 µM in test [11]; above 100 µM in test [12]; above 100 µM in [2]. Besides, the TGI in test [3], in [4], in [5], in [13], in [6] and in [7] was above 100 µM each time.
Turning to `O=c1[nH]c(=O)n(C2CC(O)C(CO)O2)cc1OCCc1ccccc1` (centres undefined), the TGI in test [8], in [9], in test [14], in test [10], in test [11] and in [12] was above 100 µM in each case. In addition, the total growth inhibition concentration (TGI) in test [3], in test [4], in test [5], in [13], in test [6] and in [7] was above 100 µM throughout.
With `CC1=CCC2(C#N)CCC1C2O` (centres undefined), the TGI in test [9], in test [14], in test [10], in test [11], in test [12] and in test [3] was above 100 µM throughout. In addition, the TGI in test [4], in test [5], in test [13], in [6] and in test [7] was above 100 µM each time.
As for `CNC(=O)CCNC(=O)CCC(=O)N(C)C`, the TGI in [8], in [9], in test [11], in test [12], in [2] and in [4] was above 100 µM in each case. For the same compound, the TGI in [5], in [13], in [6] and in [7] was above 100 µM in each case.
What is called GI50 is the concentration at which growth is held to half of that of the control. As for `FC(F)(F)c1nc2ccc(SSc3ccc4nc(C(F)(F)F)[nH]c4c3)cc2[nH]1`, the total growth inhibition concentration (TGI) in [8], in test [9], in [10], in [11], in test [12] and in [1] was above 100 µM each time. The TGI in test [2], in test [3], in [4], in test [5], in test [6] and in test [7] was above 100 µM each time. Moreover, the GI50 in test [10], in test [12], in [1], in [3], in [5] and in [6] was above 100 µM throughout.
